# Data taken from patent publication US20090042987A1, “TREATMENT OF NEUROPATHIC PAIN” (priority 2007, published 2009).
# System: STZ-diabetic rats
# Experiment: von Frey paw withdrawal thresholds, STZ-diabetic rats given multiple dosing regimens (washout protocol), Example 1
# Assay type: in vivo, rat
# Procedure: Experimental Animals Ethical approval for this study was obtained from the Animal Experimentation Ethics Committee of The University of Queensland. Adult male Sprague-Dawley (SD) rats (222±4 g) were used for this study. Rats were housed in a temperature controlled room (21+2.0 C) with a 12/12 hour light/dark cycle. Food and water were available ad libitum. Initiation of drug administration occurred at 8-11 weeks post-STZ administration for rats in Experiment 1 (PCT-001) and at 10-12 weeks post-STZ administration for rats in Experiment 2 (PCT-007).
# Test Article Tranilast was supplied by the Sponsor and stored at −4° C. until use. Gabapentin (100 mg/kg, dissolved in water for injection) was utilized as the positive control for this study.
# Test Article and Vehicle Preparation Test article formulations were prepared freshly on the day of administration by weighing the appropriate amount of bulk powder and suspending it in the required volume of vehicle. Carboxymethyl cellulose ((CMC) 0.5% in water for injection) was utilized as the vehicle for this study.
# Test Article Administration. […] The maximum oral gavage volume administered in this study was […]. 4.4
# STZ-Diabetic Rat Model of Painful Diabetic Neuropathy. Painful diabetic neuropathy is a common long-term complication of diabetes in humans that develops as a result of a sustained biochemical nerve injury. […] Following the induction of diabetes with intravenous STZ at 70-80 mg/kg, it generally takes 6-8 wks for tactile allodynia, the defining symptom of PDN, to fully develop in both rat hindpaws.
# Induction of STZ-Diabetes in Rats. On day 0, rats were anaesthetized with 3% isoflurane:97% O2 and a short polyethylene cannula (0.5 mm ID, 0.8 mm OD) was inserted into the jugular vein to facilitate the intravenous (i.v.) administration of a single dose of streptozotocin (STZ: 70-80 mg/kg). After STZ injection, the cannula was removed and the jugular vein was tied off and the wound was closed. Rats received subcutaneous benzylpenicillin (60 mg) prior to surgery to prevent infection and were kept warm during surgical recovery. Rats were housed singly prior to further experimentation and were monitored daily from the time of STZ administration with regard to general health and well-being.
# Von Frey Assessment of Paw Withdrawal Thresholds. Calibrated von Frey filaments were used to determine the lowest mechanical threshold required to evoke a brisk paw withdrawal reflex in the rat hindpaws. Briefly, rats were transferred individually to wire mesh testing cages (20 cm×20 cm×20 cm) and allowed to acclimatize for approximately 10-20 min prior to von Frey testing. Commencing with the von Frey filament that produced the 6 g force, the filament was applied to the plantar surface of the hindpaw until the filament buckled slightly. Absence of a response after 3 s prompted use of the next filament of increasing weight. A withdrawal response within 3 s prompted use of the next filament of decreasing weight. Filaments used produced buckling weights of 2, 4, 6, 8, 10, 12, 14, 16, 18 and 20 g. […] Tactile allodynia is regarded as being fully developed when von Frey PWTs in the injured hindpaws are <6 g.
# Restoring von-Frey PWTs in the hindpaws from <6 g to pre-STZ surgery levels (12±2 g) is the treatment goal representing full reversal of tactile allodynia. If drug treatment increases PWTs above pre-surgical baseline values (i.e. >12±2 g), such a response is classified as antinociception. Before administration of STZ, baseline von Frey measurements were assessed. Following STZ administration, baseline PWTs were assessed in the hindpaws at week 8-11 to confirm the development of diabetes-induced tactile allodynia. […]
smiles,measurement,setting,value
"COc1ccc(/C=C/C(=O)Nc2ccccc2C(=O)O)cc1OC [Tranilast, 2-[[3-(3,4-dimethoxyphenyl)-1-oxo-2-propenyl]amino]benzoic acid]",Mean (±SEM) PWT at the mean time of peak response,"tranilast 300 mg/kg oral, 7th twice-daily dose, 1.5 h post-dosing",9.8 (±1.1) g
same,Time of peak anti-allodynia post-dosing,"tranilast 300 mg/kg oral, 7th twice-daily dose, multiple dosing regimens",1 to 1.5 h
same,Mean (±SEM) PWT pre-dose,"tranilast 300 mg/kg oral, 7th twice-daily dose, pre-dose",5.1 (±0.4) g
same,Anti-allodynia in the hindpaws,"tranilast 30, 100, 200, 300 mg/kg oral, 7 consecutive twice-daily doses, multiple dosing regimens",significant anti-allodynia was produced only by the 300 mg/kg dosing regimen
same,"Relief of tactile allodynia, dose dependence","tranilast 100-300 mg/kg oral, 7 consecutive twice-daily doses, up to 5 dosing regimens, 2-3 day washout",dose-dependent relief of tactile allodynia
